Measurements from BigSolDB 2.1.

Nc1ccc([N+](=O)[O-])cc1[N+](=O)[O-]
solubility (mole fraction)
Conditions | in acetone | in acetonitrile | in ethanol | in ethyl acetate | in isopropanol | in methanol | in n-butanol | in n-propanol | in toluene
278.15 K | 0.0281 | 0.00772 | 0.00126 | 0.0116 | 0.000854 | 0.00126 | 0.00144 | 0.00103 | 0.00033
280.65 K | 0.0304 | 0.00829 | 0.0014 | 0.0127 | 0.00097 | 0.00138 | 0.00154 | 0.00116 | 0.000383
283.15 K | 0.0328 | 0.00893 | 0.00154 | 0.0138 | 0.0011 | 0.00156 | 0.00172 | 0.00131 | 0.000443
285.65 K | 0.0355 | 0.0098 | 0.00173 | 0.0151 | 0.00125 | 0.00173 | 0.00193 | 0.00146 | 0.000511
288.15 K | 0.0381 | 0.0108 | 0.00193 | 0.0163 | 0.00142 | 0.00192 | 0.00216 | 0.00163 | 0.000573
290.65 K | 0.0407 | 0.0118 | 0.00211 | 0.0177 | 0.00159 | 0.00212 | 0.00243 | 0.0018 | 0.000642
293.15 K | 0.0437 | 0.0127 | 0.00232 | 0.0191 | 0.00177 | 0.00232 | 0.00271 | 0.00198 | 0.000724
295.65 K | 0.0467 | 0.0138 | 0.00254 | 0.0205 | 0.002 | 0.00253 | 0.00299 | 0.00217 | 0.000814
298.15 K | 0.0497 | 0.0149 | 0.00278 | 0.0221 | 0.00227 | 0.00276 | 0.00329 | 0.00238 | 0.000917
300.65 K | 0.0531 | 0.0161 | 0.00304 | 0.0238 | 0.00253 | 0.00301 | 0.00365 | 0.00262 | 0.00102
303.15 K | 0.0565 | 0.0174 | 0.00331 | 0.0257 | 0.00281 | 0.00327 | 0.00406 | 0.00287 | 0.00114
305.65 K | 0.0604 | 0.0188 | 0.00359 | 0.0278 | 0.00313 | 0.00356 | 0.00447 | 0.00314 | 0.00128
308.15 K | 0.0642 | 0.0203 | 0.00391 | 0.0301 | 0.00346 | 0.00386 | 0.00494 | 0.00346 | 0.00142
310.65 K | 0.0682 | 0.0216 | 0.00428 | 0.0324 | 0.00383 | 0.00421 | 0.00543 | 0.0038 | 0.00158
313.15 K | 0.0723 | 0.023 | 0.00468 | 0.035 | 0.00426 | 0.00456 | 0.00589 | 0.00413 | 0.00175
315.65 K | 0.0769 | 0.0247 | 0.00511 | 0.0374 | 0.00469 | 0.00493 | 0.00646 | 0.00452 | 0.00193
318.15 K | 0.0815 | 0.0264 | 0.00555 | 0.0403 | 0.00522 | 0.00537 | 0.00712 | 0.00493 | 0.00217
